Tested on: naïve ELA-specific CD8+ T cell precursors in HLA-A2+ PBMCs
Assay: In vitro priming of ELA-specific CD8+ T cells from unfractionated PBMCs, ELA/HLA-A2 tetramer enumeration and CD45RA/CCR7 phenotype
Format: cell-based, human
Conditions: day 10 after priming of HLA-A2+ PBMCs with ELA-20 1 μM
Excerpt: Naïve precursors specific for the HLA-A*02:01-restricted epitope [sequence] […] The frequency, phenotype and functional profiling of ELA-specific CD8+ T cells were typically determined on day 10 or 11. Purified naïve and memory CD8+ T cell subsets for priming experiments were obtained using T Cell Enrichment Column Kits (R&D Systems).
ELA-specific CD8^+ T cells were quantified by flow cytometry using fluorochrome-labeled ELA/HLA-A*02:01 tetramers (FIG. 2A). […] For this purpose, we mixed purified naïve or memory CD8^+ T cells separately with autologous CD8-depleted PBMCs to initiate priming (FIG. 2B).
Moreover, to ensure optimal immunogenicity, we used the heteroclitic sequence [sequence]

Q: With lipopolysaccharide [TLR4L] as the substance, how does the “magnitude of primed/expanded ELA tetramer+ CD8+ T cells” value read?
A: Its value is “only marginal effects”.

— US20160341718A1, “METHODS FOR TESTING T CELL PRIMING EFFICACY IN A SUBJECT” (priority 2014, published 2016)
